Measurements as given in ChEMBL document CHEMBL1155399, “Novel glitazones: design, synthesis, glucose uptake and structure-activity relationships” (Bioorg Med Chem Lett, 2010).

Key:
[1] = Antidiabetic activity in Wistar rat hemidiaphragm assessed as glucose uptake at 2 mg after 45 mins by GOD/POD enzymatic method in absence of insulin; settings: Diaphragm
[2] = Antidiabetic activity in Wistar rat hemidiaphragm assessed as glucose uptake at 2 mg after 45 mins by GOD/POD enzymatic method in presence of insulin; settings: Diaphragm

Row | Structure (SMILES) | Activity [1] [mg/g] | Activity [2] [mg/g]
1 | COc1cc(/C=C2/SC(=O)NC2=O)ccc1OCC(=O)Nc1ccccn1 | 12.2 | 32
2 | COc1cc(/C=C2/SC(=S)NC2=O)ccc1OCC(=O)Nc1ccccn1 | 9.75 | 30
3 | COc1cc(/C=C2/SC(=S)NC2=O)ccc1OCC(=O)Nc1ccccc1[N+](=O)[O-] | 9 | 25.5
4 | COc1cc(/C=C2/SC(=S)NC2=O)ccc1OCC(=O)Nc1ccccc1 | 8 | 24.8
5 | CN(CCOc1ccc(CC2SC(=O)NC2=O)cc1)c1ccccn1 (configuration not stated) | 11.2 | 35.2
6 | COc1ccc(NC(=O)COc2ccc(/C=C3/SC(=O)NC3=O)cc2OC)cc1 | 10.8 | 36.2
7 | COc1cc(/C=C2/SC(=O)NC2=O)ccc1OCC(=O)NC1CCCCC1 | 9.5 | 27.2
8 | COc1ccc(NC(=O)COc2ccc(CC3SC(=S)NC3=O)cc2OC)cc1 (configuration not stated) | 9.5 | 28.2
9 | COc1ccc(NC(=O)COc2ccc(CC3SC(=O)NC3=O)cc2OC)cc1 (configuration not stated) | 11.2 | 30.2
10 | COc1cc(/C=C2/SC(=O)NC2=O)ccc1OCC(=O)NCc1ccccc1 | 10.5 | 31.8
11 | COc1cc(/C=C2/SC(=O)NC2=O)ccc1OCC(=O)Nc1ccccc1 | 12 | 28.5
12 | COc1cc(/C=C2/SC(=S)NC2=O)ccc1OCC(=O)NCc1ccccc1 | 10.2 | 26.8
13 | COc1cc(/C=C2/SC(=S)NC2=O)ccc1OCC(=O)NC1CCCCC1 | 11.8 | 30
14 | COc1ccc(NC(=O)COc2ccc(/C=C3/SC(=S)NC3=O)cc2OC)cc1 | 9.75 | 33.5
15 | COc1cc(/C=C2/SC(=O)NC2=O)ccc1OCC(=O)Nc1ccccc1[N+](=O)[O-] | 9.75 | 26.2
16 | COc1cc(/C=C2/SC(=O)NC2=O)ccc1OCC(=O)Nc1ccccc1C(N)=O | 10 | 29
